Measured values taken from EP3119416B1, “THERAPEUTIC USE OF ADIPOKINETIC HORMONE/RED PIGMENT-CONCENTRATING HORMONE (AKH/RPCH) FAMILY OF PEPTIDES” (Mutlu, Oguz, priority 2015, dated 2017).
Square brackets hold non-standard residues; d marks the D form. Peptide text beside a SMILES is read from it. pGlu = O=C1CC[C@@H](C(=O)O)N1

Legend:
[1] = tested on: Emperor dragonfly, Anax imperator; conditions: low concentrations of the synthetic peptide injected into the Emperor dragonfly; cited from earlier work
BALB/c ByJ mice [2] = experiment: Elevated Plus-Maze Test (EPM); type: in vivo
Protocol: (§1) Male, inbred BALB/c ByJ mice (Uludag University, Bursa, Turkey), 7-8 weeks old at their arrival to the laboratory, were used in this study. They were kept in the laboratory for two weeks before the onset of the experiments. Mice were maintained under standard laboratory conditions (12-h light: 12-h dark cycle, lights on 07:00 h, T=21±1°C). All animals received food and water ad libitum. All procedures described in this assay were conducted in accordance with the European Community Council's Directive for the ethical treatment of animals (86/609/EEC) and with the approval of the Kocaeli University Medical Faculty (7/3/2014).
(§2) In the FST, EPM, and locomotor activity tests, the animals were treated with Ani-AKH (1 and 2 mg/kg) (n=9-10), Lia-AKH (1 and 2 mg/kg) (n=10-12) and Pht-HrTH (1 and 2 mg/kg) (n=10-12) or vehicle (saline with 1% DMSO) (n= 10) for 14 days (chronically) and the drugs were administered intraperitoneally (i.p.) 60 min. before each test in a volume of 0.1 ml/10 g body weight. Separate group of animals used in each test.
In addition, in the EPM (acute) test, Ani- AKH (0.5 and 1 mg/kg) (n= 10 per group) was also administered, just for one time, before the test to investigate the acute effect of the hormone.
Anxiety related behaviour was measured by the elevated plus-maze test. Experiments were conducted in a dimly lit, semi-soundproof room, illuminated with table lamp (80 lux). Maze was made of wood and consisted of two open (29 cm long × 5 cm wide) and closed arms (29 cm × 5 cm with 15 cm high walls) forming a square cross with a 5 cm square center piece. In order to avoid falls the open arms was surrounded by a short (1 cm) Plexiglas edge. The maze was elevated 40 cm above the floor. Each mice was placed at the center of the maze, facing one of the open arms, and was allowed to explore the maze. The open-arm activity was evaluated as: 1) time spent in the open arms relative to the total time spent in the plus maze (300 s), expressed as a percentage 2) number of entries into the open arms relative to the total number of entries into both open and closed arms, expressed as a percentage. These values were accepted as indexes of anxiety in mice.
(§3) The results of the FST, EPM, locomotor activity tests were evaluated by one-way ANOVA followed by Tukey's post-hoc test when significant differences were detected. The data are expressed as the mean values ± SEM. The differences were considered to be statistically significant when p was less than 0.05.

BALB/c ByJ mice [3] = experiment: Forced Swim Test (FST); type: in vivo; conditions: for immobility time: 60 min before test, compared to control group, Fig 1a/1b; for antidepressant effects in the forced swimming test: male balb-c mice
Protocol: as §1, §2
The FST employed was similar to a previously described method (Porsolt et al, 1977). Briefly, the mice were dropped individually into Plexiglas cylinders (height 25 cm, diameter 10 cm) containing 10 cm of water maintained at 23-25°C and left there for 6 min. Because this is a situation from which they cannot escape, the animals rapidly become immobile, that is, floating in an upright position and making only small movements to keep their heads above water. The duration of immobility was recorded during the last 4 min of the 6-min testing period.
as §3

BALB/c ByJ mice [4] = experiment: Locomotor activity test (open field); type: in vivo; conditions: for locomotion enhancing effects in the locomotor activity test: male balb-c mice
Protocol: as §1, §2
Locomotor activity was measured using an open field test in a square arena (40 x 40 x 40 cm box). The animal was placed in the center of the apparatus and behaviours were recorded for a period of 5 min using the Etovision-XT video tracking system. The locomotor activity was evaluated by measuring the total distance travelled (cm) in the apparatus and the speed (cm/s) of the animals.
as §3

[5] = tested on: adult females of the firebug, Pyrrhocoris apterus (L.); conditions: adult female firebugs, cited from earlier work; for walking activity: simultaneously with elevation of lipid level in the haemolymph
Albino Swiss mice [6] = conditions: administered intracerebroventricularly to mice; cited from earlier work
Albino Swiss mice [7] = conditions: cited from earlier work
Albino Swiss mice [8] = conditions: cited from earlier work; remark: listed apart in the source
Albino Swiss mice [9] = conditions: injection to Albino Swiss mice (20-25 g); cited from earlier work
[10] = chronic, 1 mg/kg i.p. for 14 days, Fig 2c/2e
[11] = chronic, 1 mg/kg i.p. for 14 days, Fig 2d/2f
[12] = chronic, 2 mg/kg i.p. for 14 days, Fig 2c/2e
[13] = chronic, 2 mg/kg i.p. for 14 days, Fig 2d/2f
[14] = 2 mg/kg i.p. for 14 days, compared to control, Fig 3a/3c
[15] = 2 mg/kg i.p. for 14 days, compared to control, Fig 3b/3d

CC(C)[C@H](NC(=O)[C@@H]1CCC(=O)N1)C(=O)N[C@@H](CC(N)=O)C(=O)N[C@@H](Cc1ccccc1)C(=O)N[C@@H](CO)C(=O)N1CCC[C@H]1C(=O)N[C@@H](CO)C(=O)N[C@@H](Cc1c[nH]c2ccccc12)C(N)=O [Ani-AKH, 5-oxo-L-prolyl-L-valyl-L-asparaginyl-L-phenylalanyl-L-seryl-L-prolyl-L-seryl-L-Tryptophanamide] ([pGlu]VNFSPSW-NH2)
haemolymph lipid concentration [1]: increased
%time spent in the open arms (BALB/c ByJ mice [2]; acute, 0.5 mg/kg i.p., one time before the test, Fig 2a): significantly increased
%open arm/total arm entries (BALB/c ByJ mice [2]; acute, 1 mg/kg i.p., one time before the test, Fig 2b): significantly increased
anxiolytic effects in the elevated plus maze test (BALB/c ByJ mice [2]; administered acutely, 0.5 mg/kg): had anxiolytic effects
anxiolytic effects in the elevated plus maze test (BALB/c ByJ mice [2]; administered acutely, 1 mg/kg): had anxiolytic effects
%time spent in the open arms (BALB/c ByJ mice [2]; [10]): didn't alter
%open arm/total arm entries (BALB/c ByJ mice [2]; [11]): didn't alter
%time spent in the open arms (BALB/c ByJ mice [2]; [12]): didn't alter
%open arm/total arm entries (BALB/c ByJ mice [2]; [13]): didn't alter
immobility time (BALB/c ByJ mice [3]; 1 mg/kg i.p. for 14 days): significantly diminished
antidepressant effects in the forced swimming test (BALB/c ByJ mice [3]; 1 mg/kg i.p.): had antidepressant effects
immobility time (BALB/c ByJ mice [3]; 2 mg/kg i.p. for 14 days): significantly diminished
antidepressant effects in the forced swimming test (BALB/c ByJ mice [3]; 2 mg/kg i.p.): had antidepressant effects
total distance moved (BALB/c ByJ mice [4]; [14]): increased
speed of the animals (BALB/c ByJ mice [4]; [15]): increased
locomotion enhancing effects in the locomotor activity test (BALB/c ByJ mice [4]; 2 mg/kg i.p.): had locomotion enhancing effects

CC(C)[C@H](NC(=O)[C@@H]1CCC(=O)N1)C(=O)N[C@@H](CC(N)=O)C(=O)N[C@@H](Cc1ccccc1)C(=O)N[C@H](C(=O)N1CCC[C@H]1C(=O)N[C@@H](CO)C(=O)N[C@@H](Cc1c[nH]c2ccccc12)C(N)=O)[C@@H](C)O [Lia-AKH, 5-oxo-L-prolyl-L-valyl-L-asparaginyl-L-phenylalanyl-L-threonyl-L-prolyl-L-seryl-L-Tryptophanamide] ([pGlu]VNFTPSW-NH2)
%time spent in the open arms (BALB/c ByJ mice [2]; [12]): significantly increased
%open arm/total arm entries (BALB/c ByJ mice [2]; [13]): significantly increased
anxiolytic effects in the elevated plus maze test (BALB/c ByJ mice [2]; given chronically, 2 mg/kg): had anxiolytic effects
immobility time (BALB/c ByJ mice [3]; 1 mg/kg i.p. for 14 days): significantly diminished
antidepressant effects in the forced swimming test (BALB/c ByJ mice [3]; 1 mg/kg i.p.): had antidepressant effects
immobility time (BALB/c ByJ mice [3]; 2 mg/kg i.p. for 14 days): significantly diminished
antidepressant effects in the forced swimming test (BALB/c ByJ mice [3]; 2 mg/kg i.p.): had antidepressant effects
total distance moved (BALB/c ByJ mice [4]; 1 mg/kg i.p. for 14 days, compared to control, Fig 3c): increased
speed of the animals (BALB/c ByJ mice [4]; 1 mg/kg i.p. for 14 days, compared to control, Fig 3d): increased
locomotion enhancing effects in the locomotor activity test (BALB/c ByJ mice [4]; 1 mg/kg i.p.): had locomotion enhancing effects
total distance moved (BALB/c ByJ mice [4]; [14]): increased
speed of the animals (BALB/c ByJ mice [4]; [15]): increased
locomotion enhancing effects in the locomotor activity test (BALB/c ByJ mice [4]; 2 mg/kg i.p.): had locomotion enhancing effects

CC(C)C[C@H](NC(=O)[C@@H]1CCC(=O)N1)C(=O)N[C@H](C(=O)N[C@@H](Cc1ccccc1)C(=O)N[C@@H](CO)C(=O)N1CCC[C@H]1C(=O)N[C@@H](CC(=O)O)C(=O)N[C@@H](Cc1c[nH]c2ccccc12)C(N)=O)[C@@H](C)O [Pht-HrTH, 5-oxo-L-prolyl-L-leucyl-L-threonyl-L-phenylalanyl-L-seryl-L-prolyl-L-alfa-aspartyl-L-Tryptophanamide] ([pGlu]LTFSPDW-NH2)
%time spent in the open arms (BALB/c ByJ mice [2]; [10]): significantly increased
%open arm/total arm entries (BALB/c ByJ mice [2]; [11]): significantly increased
%time spent in the open arms (BALB/c ByJ mice [2]; [12]): significantly increased
%open arm/total arm entries (BALB/c ByJ mice [2]; [13]): significantly increased
anxiolytic effects in the elevated plus maze test (BALB/c ByJ mice [2]; given chronically, 1 mg/kg): had anxiolytic effects
anxiolytic effects in the elevated plus maze test (BALB/c ByJ mice [2]; given chronically, 2 mg/kg): had anxiolytic effects
immobility time (BALB/c ByJ mice [3]; 1 mg/kg i.p. for 14 days): significantly diminished
antidepressant effects in the forced swimming test (BALB/c ByJ mice [3]; 1 mg/kg i.p.): had antidepressant effects
immobility time (BALB/c ByJ mice [3]; 2 mg/kg i.p. for 14 days): significantly diminished
antidepressant effects in the forced swimming test (BALB/c ByJ mice [3]; 2 mg/kg i.p.): had antidepressant effects
locomotion enhancing effects in the locomotor activity test (BALB/c ByJ mice [4]; dose not given, i.p.): had locomotion enhancing effects
total distance moved (BALB/c ByJ mice [4]; dose not printed in the sentence (groups 1 and 2 mg/kg i.p. for 14 days), Fig 3c): increased
speed of the animals (BALB/c ByJ mice [4]; dose not printed in the sentence (groups 1 and 2 mg/kg i.p. for 14 days), Fig 3d): increased

NCCc1ccc(O)c(O)c1 [dopamine]
AKHs level in haemolymph [5]: decreased
level of AKHs in CNS [5]: no effect
mobilization of the fat body lipids [5]: mobilized
walking activity [5]: capable to enhance

NCCc1c[nH]cn1 [histamine]
mobilization of the fat body lipids [5]: mobilized

NC[C@H](O)c1ccc(O)c(O)c1 [norepinephrine]
AKHs level in haemolymph [5]: increased
level of AKHs in CNS [5]: no effect
mobilization of the fat body lipids [5]: mobilized
walking activity [5]: capable to enhance

NCC(O)c1ccc(O)cc1 (stereo not shown) [octopamine]
mobilization of the fat body lipids [5]: mobilized

NCCc1c[nH]c2ccc(O)cc12 [serotonin]
mobilization of the fat body lipids [5]: mobilized

[pGlu]VNFSPNW-NH2 [periplanetin CC-1]
peripheral blood glucose level (Albino Swiss mice [6]): did not increase
influence on the electric convulsions (Albino Swiss mice [7]): no influence
mortality in pentetrazole-induced seizures (Albino Swiss mice [8]): increased
threshold for tonic seizures (Albino Swiss mice [8]; pentetrazole-induced seizures): decreased
analgesic activity (Albino Swiss mice [9]): strong analgesic activity
